Experiments:
[1] = target: T1, FLT3-ITD (Homo sapiens, UniProt P36888); assay: FLT3-ITD biochemical kinase assay (AlphaScreen)
T1 construct: FLT3-ITD; Invitrogen #PV6190
T1 sequence (P36888 1-993): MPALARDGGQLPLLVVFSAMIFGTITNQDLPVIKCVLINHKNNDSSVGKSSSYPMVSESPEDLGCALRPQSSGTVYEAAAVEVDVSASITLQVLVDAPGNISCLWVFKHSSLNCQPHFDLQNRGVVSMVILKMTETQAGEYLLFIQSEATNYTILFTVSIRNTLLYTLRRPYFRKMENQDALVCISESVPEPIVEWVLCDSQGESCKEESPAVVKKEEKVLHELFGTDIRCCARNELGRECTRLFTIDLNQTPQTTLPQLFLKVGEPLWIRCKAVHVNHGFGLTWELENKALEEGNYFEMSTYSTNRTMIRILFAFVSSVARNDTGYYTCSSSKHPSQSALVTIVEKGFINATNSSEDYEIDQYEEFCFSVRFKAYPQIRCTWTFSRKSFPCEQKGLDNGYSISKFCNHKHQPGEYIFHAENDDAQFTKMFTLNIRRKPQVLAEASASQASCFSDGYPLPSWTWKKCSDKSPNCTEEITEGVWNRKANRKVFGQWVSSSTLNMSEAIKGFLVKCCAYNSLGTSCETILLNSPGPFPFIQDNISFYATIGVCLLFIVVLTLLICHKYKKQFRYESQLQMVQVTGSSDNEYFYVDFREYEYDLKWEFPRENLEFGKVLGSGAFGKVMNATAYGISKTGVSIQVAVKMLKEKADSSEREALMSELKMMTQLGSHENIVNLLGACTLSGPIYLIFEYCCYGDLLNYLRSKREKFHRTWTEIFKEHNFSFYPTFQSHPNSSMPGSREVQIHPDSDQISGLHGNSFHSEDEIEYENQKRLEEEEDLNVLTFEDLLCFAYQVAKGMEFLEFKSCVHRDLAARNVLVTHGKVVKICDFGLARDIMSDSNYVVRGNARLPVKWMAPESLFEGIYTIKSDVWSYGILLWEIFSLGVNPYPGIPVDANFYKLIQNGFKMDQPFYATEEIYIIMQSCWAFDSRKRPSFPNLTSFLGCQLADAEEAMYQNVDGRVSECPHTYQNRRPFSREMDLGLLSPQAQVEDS
Description: (§1) In order to determine the effect of compounds on FLT3 catalytic activity, kinase assays using recombinant enzymes and AlphaScreen® technology have been established. When the kinases are catalytically active, they phosphorylate a biotinylated peptide substrate on tyrosine residues. Using AlphaScreen® technology, the ability of the compounds to affect the catalytic activity of the kinases can be measured quantitatively. The peptide substrate is immobilized by the AlphaScreen® Streptavidin Donor beads and, upon phosphorylation by a tyrosine kinase, can bind to AlphaScreen® Anti-Phosphotyrosine (PY20) Acceptor beads. Upon excitation of these beads with laser light at 680 nm, singlet oxygen is produced. This singlet oxygen is rapidly quenched, unless the AlphaScreen® Anti-Phosphotyrosine (PY20) Acceptor beads are in close proximity, in which case a proximity signal can be measured at 580 nm. In the presence of catalytic activity, there is a very strong proximity signal. Selective kinase inhibitors affect a decrease in this proximity signal through a decrease in tyrosine phosphorylation of the peptide substrate.
(§2) Substrate • Poly (Glu4-Tyr) Peptide, biotin conjugate [Biotin-GG(EEEEY)10EE (SEQ ID NO: 4)] • UBI/Millipore #12-440 • Final concentration=30 nM
(§3) Adenosine Triphosphate (ATP) • Sigma #A-3377 • Final concentration for IC50 determination=10 μM (FLT3-D835Y) or 100 μM (FLT3 or FLT3-ITD) • Detection Reagent • AlphaScreen® Phosphotyrosine (PY20) Assay Kit • Perkin-Elmer #6760601M • Final concentration=10 μg/mL
(§4) Centrifuge 1 minute, shake to mix, and incubate as follows:
(§5) • Mix Streptavidin Donor beads at 6× final concentration in Stop/Detection buffer. • Add 5 μL Streptavidin Donor beads to the reaction plate. Centrifuge 1 minute, shake to mix, and incubate at room temperature for 20 minutes. • Mix Anti-Phosphotyrosine (PY20) Acceptor beads at 6× final concentration in Stop/Detection buffer. • Add 5 μL Anti-Phosphotyrosine (PY20) beads to the reaction plate. • Centrifuge 1 minute, shake to mix, and incubate at room temperature for 60 minutes. • Read plate on Wallac EnVision™ 2103 Multilabel Reader. In Vivo Model System Testing

[2] = target: T2, FLT3-D835Y (Homo sapiens, UniProt P36888, D835Y); assay: FLT3-D835Y biochemical kinase assay (AlphaScreen)
T2 construct: purchased Invitrogen PV3967
T2 sequence (P36888 27-993 D835Y): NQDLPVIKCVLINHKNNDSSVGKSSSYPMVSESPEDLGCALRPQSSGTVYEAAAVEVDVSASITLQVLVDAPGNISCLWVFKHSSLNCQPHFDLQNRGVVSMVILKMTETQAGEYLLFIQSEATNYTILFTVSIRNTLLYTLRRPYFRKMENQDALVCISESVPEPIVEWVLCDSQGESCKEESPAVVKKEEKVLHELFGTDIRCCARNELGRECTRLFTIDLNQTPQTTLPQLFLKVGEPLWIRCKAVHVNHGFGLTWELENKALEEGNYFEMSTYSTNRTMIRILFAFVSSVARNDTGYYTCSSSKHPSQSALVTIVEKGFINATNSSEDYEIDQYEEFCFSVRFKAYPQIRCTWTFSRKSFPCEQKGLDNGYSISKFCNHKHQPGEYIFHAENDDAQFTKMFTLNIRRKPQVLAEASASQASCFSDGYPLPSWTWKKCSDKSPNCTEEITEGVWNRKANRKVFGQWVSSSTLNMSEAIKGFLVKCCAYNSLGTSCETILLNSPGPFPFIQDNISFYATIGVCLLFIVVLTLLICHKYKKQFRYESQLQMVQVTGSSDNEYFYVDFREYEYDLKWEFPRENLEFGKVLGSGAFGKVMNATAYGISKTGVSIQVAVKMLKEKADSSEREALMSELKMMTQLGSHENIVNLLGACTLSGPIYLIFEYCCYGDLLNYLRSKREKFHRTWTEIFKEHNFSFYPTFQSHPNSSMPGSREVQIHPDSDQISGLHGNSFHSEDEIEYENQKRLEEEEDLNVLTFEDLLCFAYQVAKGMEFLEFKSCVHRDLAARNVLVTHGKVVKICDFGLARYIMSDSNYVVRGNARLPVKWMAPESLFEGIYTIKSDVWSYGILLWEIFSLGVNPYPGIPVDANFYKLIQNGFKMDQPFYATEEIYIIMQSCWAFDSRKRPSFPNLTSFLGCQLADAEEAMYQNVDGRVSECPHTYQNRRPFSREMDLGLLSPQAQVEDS
Description: as §1, §2, §3, §4, §5

## Cc1ncc(-c2cnc3[nH]cc(-c4ccc5ncn(C(C)(C)C)c5c4)c3c2)cc1F [P-392, 1-tert-butyl-6-[5-(5-fluoro-6-methyl-3-pyridyl)-1H-pyrrolo[2,3-b]pyridin-3-yl]benzimidazole]
[1]
  IC50: 0.0001 to 1 µM

## CC(C)(C)n1cnc2ccc(-c3c[nH]c4ncc(-c5cnc(N)nc5)cc34)cc21 [P-397, 5-[3-(3-tert-butylbenzimidazol-5-yl)-1H-pyrrolo[2,3-b]pyridin-5-yl]pyrimidin-2-amine]
[1]
  IC50: 0.0001 to 1 µM

## Cn1cc(-c2cnc3[nH]cc(-c4ccc5ncsc5c4)c3n2)ccc1=O [P-182, 5-[7-(1,3-benzothiazol-6-yl)-5H-pyrrolo[2,3-b]pyrazin-2-yl]-1-methyl-pyridin-2-one]
[2]
  IC50: 0.0001 to 1 µM

## O=S(=O)(c1cccc(-c2cnc3[nH]cc(-c4ccc5ncsc5c4)c3n2)c1)N1CCCC1 [P-171, 6-[2-(3-pyrrolidin-1-ylsulfonylphenyl)-5H-pyrrolo[2,3-b]pyrazin-7-yl]-1,3-benzothiazole]
[2]
  IC50: 0.0001 to 1 µM

## O=S(=O)(c1ccc(-c2cnc3[nH]cc(-c4ccc5ncsc5c4)c3n2)cc1)N1CCCC1 [P-160, 6-[2-(4-pyrrolidin-1-ylsulfonylphenyl)-5H-pyrrolo[2,3-b]pyrazin-7-yl]-1,3-benzothiazole]
[2]
  IC50: 0.0001 to 1 µM

## CC(C)(C)n1cnc2ccc(-c3c[nH]c4ncc(-c5cnc(C#N)nc5)cc34)cc21 [P-396, 5-[3-(3-tert-butylbenzimidazol-5-yl)-1H-pyrrolo[2,3-b]pyridin-5-yl]pyrimidine-2-carbonitrile]
[1]
  IC50: 0.0001 to 1 µM

## N#Cc1cc(-c2cnc3[nH]cc(-c4ccc5ncn(-c6ccc(F)cc6)c5c4)c3c2)ccc1F [P-209, 2-fluoro-5-[3-[3-(4-fluorophenyl)benzimidazol-5-yl]-1H-pyrrolo[2,3-b]pyridin-5-yl]benzonitrile]
[2]
  IC50: 0.0001 to 1 µM

## CC(C)(C)n1cnc2ccc(-c3c[nH]c4ncc(-c5cnc(C(=O)O)nc5)cc34)cc21 [P-402, 5-[3-(3-tert-butylbenzimidazol-5-yl)-1H-pyrrolo[2,3-b]pyridin-5-yl]pyrimidine-2-carboxylic acid]
[1]
  IC50: 0.0001 to 1 µM

## CN(C)c1ncc(-c2cnc3[nH]cc(-c4ccc5ncn(C(C)(C)C)c5c4)c3c2)cn1 [P-401, 5-[3-(3-tert-butylbenzimidazol-5-yl)-1H-pyrrolo[2,3-b]pyridin-5-yl]-N,N-dimethyl-pyrimidin-2-amine]
[1]
  IC50: 0.0001 to 1 µM

## COc1cc(-c2cnc3[nH]cc(-c4ccc5ncn(-c6ccc(F)cc6)c5c4)c3n2)cc(OC)n1 [P-205, 2-(2,6-dimethoxy-4-pyridyl)-7-[3-(4-fluorophenyl)benzimidazol-5-yl]-5H-pyrrolo[2,3-b]pyrazine]
[2]
  IC50: 0.0001 to 1 µM

## Cc1cc(-c2cnc3[nH]cc(-c4ccc5ncn(C(C)(C)C)c5c4)c3n2)ccn1 [P-403, 7-(3-tert-butylbenzimidazol-5-yl)-2-(2-methyl-4-pyridyl)-5H-pyrrolo[2,3-b]pyrazine]
[1]
  IC50: 0.0001 to 1 µM

## CC(C)(C)n1cnc2ccc(-c3c[nH]c4ncc(-c5cnc(N6CCC6)nc5)cc34)cc21 [P-398, 5-[2-(azetidin-1-yl)pyrimidin-5-yl]-3-(3-tert-butylbenzimidazol-5-yl)-1H-pyrrolo[2,3-b]pyridine]
[1]
  IC50: 0.0001 to 1 µM

## CC(C)(C)n1cnc2ccc(-c3c[nH]c4ncc(NS(=O)(=O)c5cccc(C#N)c5)cc34)cc21 [P-233, N-[3-(3-tert-butylbenzimidazol-5-yl)-1H-pyrrolo[2,3-b]pyridin-5-yl]-3-cyano-benzenesulfonamide]
[2]
  IC50: 0.0001 to 1 µM

## CC(C)S(=O)(=O)Nc1cccc(-c2cnc3[nH]cc(-c4ccc5ncsc5c4)c3n2)c1 [P-184, N-[3-[7-(1,3-benzothiazol-6-yl)-5H-pyrrolo[2,3-b]pyrazin-2-yl]phenyl]propane-2-sulfonamide]
[2]
  IC50: 0.0001 to 1 µM

## Cc1ncc(-c2cnc3[nH]cc(-c4ccc5ncn(C(C)(C)C)c5c4)c3c2)cn1 [P-395, 1-tert-butyl-6-[5-(2-methylpyrimidin-5-yl)-1H-pyrrolo[2,3-b]pyridin-3-yl]benzimidazole]
[1]
  IC50: 0.0001 to 1 µM

## COc1cc(-c2cnc3[nH]cc(-c4ccc5ncsc5c4)c3n2)cc(OC)n1 [P-172, 6-[2-(2,6-dimethoxy-4-pyridyl)-5H-pyrrolo[2,3-b]pyrazin-7-yl]-1,3-benzothiazole]
[2]
  IC50: 0.0001 to 1 µM

## COc1cc(-c2cnc3[nH]cc(-c4ccc5ncsc5c4)c3n2)ccc1C#N [P-183, 4-[7-(1,3-benzothiazol-6-yl)-5H-pyrrolo[2,3-b]pyrazin-2-yl]-2-methoxy-benzonitrile]
[2]
  IC50: 0.0001 to 1 µM

## COc1cc(-c2cnc3[nH]c(C)c(-c4ccc5ncn(C)c5c4)c3c2)ccn1 [P-112, 5-(2-methoxy-4-pyridyl)-2-methyl-3-(3-methylbenzimidazol-5-yl)-1H-pyrrolo[2,3-b]pyridine]
[2]
  IC50: 0.0001 to 1 µM

## COc1cc(-c2cnc3[nH]cc(-c4ccc5ncn(-c6ccc(F)cc6)c5c4)c3c2)cc(OC)n1 [P-198, 5-(2,6-dimethoxy-4-pyridyl)-3-[3-(4-fluorophenyl)benzimidazol-5-yl]-1H-pyrrolo[2,3-b]pyridine]
[2]
  IC50: 0.0001 to 1 µM

## COc1cnc2[nH]cc(-c3ccc4[nH]ncc4c3)c2c1 [P-003, 3-(1H-indazol-5-yl)-5-methoxy-1H-pyrrolo[2,3-b]pyridine]
[2]
  IC50: 1 to 10 µM

## Cn1cnc2ccc(-c3c[nH]c4ncc(-c5ccc(Cl)c(C#N)c5)cc34)cc21 [P-140, 2-chloro-5-[3-(3-methylbenzimidazol-5-yl)-1H-pyrrolo[2,3-b]pyridin-5-yl]benzonitrile]
[2]
  IC50: 0.0001 to 1 µM

## Cn1cnc2ccc(-c3c[nH]c4ncc(-c5ccc(S(=O)(=O)N6CCCC6)cc5)nc34)cc21 [P-148, 7-(3-methylbenzimidazol-5-yl)-2-(4-pyrrolidin-1-ylsulfonylphenyl)-5H-pyrrolo[2,3-b]pyrazine]
[2]
  IC50: 0.0001 to 1 µM
